In assay [1] the test system is TNFα. Briefly: ELISA of TNFα secreted into the media after LPS. Format: cell-based. On the procedure:
The ability of candidate compounds to reduce the amount of secreted TNFα was also directly tested using an ELISA assay. […] A standard ELISA analysis was used to measure the amount of TNFα secreted into the media (see, for example, Ausubel et al., supra). The effect of a candidate compound on TNFα secretion in this assay is reported in the following tables as a percentage of the amount of TNFα secreted by a control cell that was administered a DMSO vehicle control only.
In general terms: ELISA stands for enzyme-linked immunosorbent assay.

Assay [2] concerns 3′ UTR of the TNFα gene. Briefly: cell-based luciferase reporter assay, 5B cell line (luciferase gene with entire 3′ UTR of the TNFα gene). Also noted: species or system mouse. The following applies: for Luciferase 5B (% of DMSO control): 1 h, then LPS, 5B cell line. On the procedure: The candidate compounds were tested in a high-throughput, cell-based luciferase reporter assay. For this assay, a commercially available mouse macrophage Raw 264.7 cell line was stably transfected with a construct containing the CMV promoter operably linked to the luciferase gene which was modified using standard molecular biology techniques to contain the entire 3′ UTR of the TNFα gene. This 3′ UTR is important for the stability and translation of TNFα in cells. To control for effects of candidate compounds that are not specific for TNFα, a control cell line, called “3B,” was generated by stably transfecting the 264.7 cell line with a commercially available construct containing the luciferase gene (without the addition of the heterologous 3′ UTR of the TNFα gene) under the regulation of the CMV promoter.
[…] Then, lipopolysaccharide (LPS) was added to stimulate TNFα secretion. Luciferase activity was measured by determining the luminescence intensity due to the reaction of lucifern, ATP, Mg^2+, and molecular O2 (see, for example, Ausubel et al., supra). The luciferase activity in a cell incubated with a candidate compound was reported as a percentage of the luciferase activity for the corresponding cell incubated with DMSO vehicle only.
After correction for any effect caused by the administration of the DMSO only vehicle control, the effect of a candidate compound on luciferase activity in the 3B control cell line represents the global effect of the compound on any step required for expression or activity of luciferase protein, such as luciferase gene transcription, mRNA processing, mRNA stability, translation, protein stability, or enzymatic activity. […] In this case, the luciferase activity in the 5B cell line treated with the DMSO vehicle control is similar to the luciferase activity in the control 3B cell line treated with the candidate compound. Thus, the response of the 5B cell line (as a percent of the DMSO control) and the ratio of the luciferase activity in the 5B cell line (as a percent of the DMSO control) to the luciferase activity in the control 3B cell line (as a percent of the DMSO control) are similar. In desirable embodiments, the response of the 5B cell line and the 5B/3B ratio differ by less than 50, 40, 30, 20, 10, or 5%.
(In general: Reporter assays use an easily measured gene product as a stand-in for the process of interest.)

[3] abbreviates: 10 μM compound, ratio of 5B to control 3B cell line.

Take `C/C(=N\N=C(N)N)c1cccc(C(=O)NCCNC(=O)[C@H](Cc2ccccc2)NC(=O)c2ccc(/C(=N/N=C(N)N)c3ccccc3)cc2)c1.O=C(O)C(F)(F)F.O=C(O)C(F)(F)F` [MES 10091, (E,E)-Bisguanylhydrazone of 1-[(S)-N-(4-benzoylbenzoyl)-2-amino-3-phenylpropanoyl]-4-(3-acetylbenzoyl)-1,4-diazabutane bis trifluoroacetate]: the results for the “TNFα Secretion (% of DMSO control)” value in assay [1] (1 μM compound (Table 11)), in assay [1] (3 μM compound (Table 11)) and in assay [1] (10 μM compound (Table 11)) were 97 % of DM80 control, 41 % of DM80 control and 22 % of DM80 control, respectively. Besides, the figures for the “Luciferase 5B/3B (% of DMSO control 5B)/(% of DMSO control 3B)” value in assay [2] (1 μM compound (Table 11)), in assay [2] (3 μM compound (Table 11)) and in assay [2] (10 μM compound (Table 11)) were 113 (% of DMSO control 5B)/(% of D, 68 (% of DMSO control 5B)/(% of D and 73 (% of DMSO control 5B)/(% of D, respectively.
With `C/C(=N\N=C(N)N)c1cccc(C(=O)NCCNC(=O)[C@H](Cc2ccccc2)NC(=O)c2ccc(/C(=N\N=C(N)N)c3ccccc3)cc2)c1.O=C(O)C(F)(F)F.O=C(O)C(F)(F)F` [MES 10092, (1-Z,4-E)-Bisguanylhydrazone of 1-[(S)-N-(4-benzoylbenzoyl)-2-amino-3-phenylpropanoyl]-4-(3-acetylbenzoyl)-1,4-diazabutane bis trifluoroacetate], the figures for the “TNFα Secretion (% of DMSO control)” value in assay [1] (1 μM compound (Table 11)), in assay [1] (3 μM compound (Table 11)) and in assay [1] (10 μM compound (Table 11)) were 108 % of DM80 control, 81 % of DM80 control and 107 % of DM80 control, respectively. For the same compound, the entries for the “Luciferase 5B/3B (% of DMSO control 5B)/(% of DMSO control 3B)” value in assay [2] (1 μM compound (Table 11)), in assay [2] (3 μM compound (Table 11)) and in assay [2] (10 μM compound (Table 11)) were 100 (% of DMSO control 5B)/(% of D, 78 (% of DMSO control 5B)/(% of D and 69 (% of DMSO control 5B)/(% of D, respectively.
For `CC(C)C[C@H](NC(=O)c1ccc(C(=NNC(=N)N)c2ccccc2)cc1)C(=O)N1CCN(C(=O)[C@H](Cc2ccccc2)NC(=O)c2ccc(C(=O)c3ccccc3)cc2)CC1.O=C(O)C(F)(F)F` [MES 10168, (4-E)-Guanylhydrazone of 1-[(S)-N-(4-benzoylbenzoyl)-2-amino-3-phenylpropanoyl]-4-[(2S)-N-(4-benzoylbenzoyl)-2-amino-4-methylpentanoyl]-1,4-piperazine trifluoroacetate], in assay [1] (10 μM compound, 1 h, then LPS), the “TNFα Secretion (% of DMSO control)” value was 35 % of DMSO control. The “Luciferase 5B (% of DMSO control)” value in assay [2] (10 μM compound) is reported as 104 % of DMSO control. Besides, in assay [2] (setting [3]), the “Luciferase 5B/3B (% of DMSO control 5B)/(% of DMSO control 3B)” value is given as 127 (% of DMSO control 5B)/(% of DMSO control 3B).
For the compound `CC(=NNC(=N)N)c1cccc(C(=O)N[C@@H](CC(C)C)C(=O)N2CCN(C(=O)[C@H](Cc3ccccc3)NC(=O)c3ccc(C(=O)c4ccccc4)cc3)CC2)c1.O=C(O)C(F)(F)F` [MES 10173, (4-E)-Guanylhydrazone of 1-[(S)-N-(4-benzoylbenzoyl)-2-amino-3-phenylpropanoyl]-4-[(2S)-N-(3-acetylbenzoyl)-2-amino-4-methylpentanoyl]-piperazine trifluoroaceteate], in assay [1] (10 μM compound, 1 h, then LPS), the “TNFα Secretion (% of DMSO control)” value is reported as 42 % of DMSO control. For the same compound, the “Luciferase 5B (% of DMSO control)” value in assay [2] (10 μM compound) is given as 26 % of DMSO control.
For the compound `O=C(N[C@@H](Cc1ccccc1)C(=O)N1CCN(C(=O)CCC(=O)N2CCN(c3ccccc3)CC2)CC1)c1ccc(C(=O)c2ccccc2)cc1` [MES 10229], in assay [1] (10 μM compound, 1 h, then LPS), the “TNFα Secretion (% of DMSO control)” value was 65 % of DMSO control. In assay [2] (10 μM compound), the “Luciferase 5B (% of DMSO control)” value is listed as 31 % of DMSO control. Further, the “Luciferase 5B/3B (% of DMSO control 5B)/(% of DMSO control 3B)” value in assay [2] (setting [3]) is given as 49 (% of DMSO control 5B)/(% of D.
In the same order, the values of `CC(C)C[C@H](NC(=O)c1ccc(C(=O)c2ccccc2)cc1)C(=O)N1CCN(C(=O)CCC(=O)N2CCN(c3ccccc3)CC2)CC1` [MES 10230] are 77 % of DMSO control, 41 % of DMSO control and 52 (% of DMSO control 5B)/(% of D.
The like results for `C/C(=N\NC(=N)N)c1cccc(C(=O)N[C@@H](CC(C)C)C(=O)N2CCN(C(=O)[C@H](Cc3ccccc3)NCc3ccccc3)CC2)c1` [MES 10241] were, in that order, 100 % of DMSO control, 68 % of DMSO control and 90 (% of DMSO control 5B)/(% of D.
The like results for `C/C(=N\NC(=N)N)c1cccc(C(=O)N[C@@H](CC(C)C)C(=O)N2CCN(C(=O)[C@H](Cc3ccccc3)NCc3ccc(I)cc3)CC2)c1` [MES 10242] were, in that order, 67 % of DMSO control, 53 % of DMSO control and 50 (% of DMSO control 5B)/(% of D.
For the compound `C/C(=N\NC(=N)N)c1cccc(C(=O)N[C@@H](CC(C)C)C(=O)N2CCN(C(=O)[C@H](Cc3ccccc3)NCc3ccc([N+](=O)[O-])cc3)CC2)c1` [MES 10243], in assay [1] (10 μM compound, 1 h, then LPS), the “TNFα Secretion (% of DMSO control)” value was 73 % of DMSO control. For the same compound, the “Luciferase 5B (% of DMSO control)” value in assay [2] (10 μM compound) is 81 % of DMSO control. Besides, the “Luciferase 5B/3B (% of DMSO control 5B)/(% of DMSO control 3B)” value in assay [2] (setting [3]) is 79 (% of DMSO control 5B)/(% of D.
In the same order, the values of `C/C(=N\NC(=N)N)c1cccc(C(=O)N[C@@H](CC(C)C)C(=O)N2CCN(C(=O)[C@H](Cc3ccccc3)NCc3ccc(-c4ccccc4)cc3)CC2)c1` [MES 10244] are 48 % of DMSO control, 46 % of DMSO control and 36 (% of DMSO control 5B)/(% of D.
Take `CC(C)CC(NC(=O)c1ccc(C(=NNC(=N)N)c2ccccc2)cc1)C(=O)N1CCN(C(=O)C(Cc2ccccc2)NC(=O)c2ccccc2)CC1` (centres unmarked) [MES 10247]: the “TNFα Secretion (% of DMSO control)” value in assay [1] (10 μM compound, 1 h, then LPS) is 39 % of DMSO control. In assay [2] (10 μM compound), the “Luciferase 5B (% of DMSO control)” value is given as 37 % of DMSO control. In assay [2] (setting [3]), the “Luciferase 5B/3B (% of DMSO control 5B)/(% of DMSO control 3B)” value was 41 (% of DMSO control 5B)/(% of D.
The like results for `CC(C)CC(NC(=O)c1ccc(C(=NNC(=N)N)c2ccccc2)cc1)C(=O)N1CCN(C(=O)C(Cc2ccccc2)NC(=O)c2ccccc2)CC1` (centres unmarked) [MES 10248] were, in that order, 39 % of DMSO control, 56 % of DMSO control and 72 (% of DMSO control 5B)/(% of D.
On to `CC(C)C[C@H](NC(=O)c1ccccc1)C(=O)N1CCN(C(=O)[C@H](Cc2ccccc2)NC(=O)c2ccc(/C(=N/N=C(N)N)c3ccccc3)cc2)CC1.O=C(O)C(F)(F)F` [MES 10249, (E)-Guanylhydrazone of 1-[(S)-N-(4-benzoylbenzoyl)-2-amino-3-phenylpropanoyl]-4-[(2S)-N-(benzoyl)-2-amino-4-methylpentanoyl]-1,4-piperazine trifluoroacetate], for which, in assay [1] (10 μM compound, 1 h, then LPS), the “TNFα Secretion (% of DMSO control)” value is given as 40 % of DMSO control. For the same compound, the “Luciferase 5B (% of DMSO control)” value in assay [2] (10 μM compound) is 58 % of DMSO control. Besides, the “Luciferase 5B/3B (% of DMSO control 5B)/(% of DMSO control 3B)” value in assay [2] (setting [3]) is 68 (% of DMSO control 5B)/(% of D.
The like results for `CC(C)C[C@H](NC(=O)c1ccccc1)C(=O)N1CCN(C(=O)[C@H](Cc2ccccc2)NC(=O)c2ccc(/C(=N\N=C(N)N)c3ccccc3)cc2)CC1.O=C(O)C(F)(F)F` [MES 10250, (Z)-Guanylhydrazone of 1-[(S)-N-(4-benzoylbenzoyl)-2-amino-3-phenylpropanoyl]-4-[(2S)-N-(benzoyl)-2-amino-4-methylpentanoyl]-1,4-piperazine trifluoroacetate] were, in that order, 40 % of DMSO control, 37 % of DMSO control and 49 (% of DMSO control 5B)/(% of D.

Values taken from patent US6872850B2, “Small molecule inhibitors of secretion of proteins encoded by ARE-mRNAs” (Message Pharmaceuticals, priority 2001, dated 2005).
